Test results published in US6004749A, “Method for identifying compounds affecting RNA/RNA binding protein interactions” (Message Pharmaceuticals, priority 1997, dated 1999).
Entries after “also recorded” stand apart in the source; their conditions may differ.

Columns and labels:
[1] = test system: IRE RNA / RNA binding protein (K562 protein extract); experiment: Filter binding assay, IRE RNA with K562 protein extract; conditions: hemin 1 to 100 μM; FeCl3 1 μM to 1 mM; desferroxiamine 1 μM to 1 mM
Description: FIG. 6 is a graph of the amount of radioactively labeled RNA retained on a filter (expressed in percent of the amount of RNA retained on a filter in a reference binding solution) following loading of various binding solutions. All of the binding solutions contained radioactively labeled IRE RNA either alone or including various other components. The first column represents a binding solution without RNA binding protein. The remaining columns represent binding solutions containing RNA binding protein (K562 extract). […] Desferal and des indicate that the binding solutions included the indicated amount of desferroxiamine as a test compound.
FIG. 8 is a graph of the amount of radioactively labeled RNA retained on a filter (expressed in percent of the amount of RNA retained on a filter in a reference binding solution) following loading of various binding solutions. Alternate columns correspond to binding solutions containing radioactively labeled AUUUA RNA or IRE RNA, either alone or including various other components. The first two column represents binding solutions without RNA binding protein. The remaining columns represent binding solution containing RNA binding protein (K562 extract). Columns 5 through 40 correspond to binding solutions including the indicated amount of the indicated test compound.
All binding reactions are performed in 96-well polystyrene plates in a final volume of 10 or 100 μl. The assays were constituted and performed as described below. […]
Binding assays were performed with wild-type IRE RNA and K562 protein extract in the presence of sources of iron or iron chelators to determine the ability of the filter assay to detect the modulation of binding interactions by small molecules. […] The reactions were analyzed by gel shifts to visualize the results of the filter assay.

[2] = test system: AUUUA RNA / RNA binding protein (K562 extract); experiment: High throughput filter binding assay, 32P-labeled AUUUA RNA with K562 protein extract
Description: FIG. 7 is a graph of the amount of radioactively labeled RNA retained on a filter (expressed in percent of the amount of RNA retained on a filter in a reference binding solution) following loading of various binding solutions. All of the binding solutions contained radioactively labeled AUUUA RNA either alone or including various other components. The first column represents a binding solution without RNA binding protein. The remaining columns represent binding solution containing RNA binding protein (K562 extract). Columns 3 through 8 correspond to binding solutions including the indicated test compound.
(§1) All binding reactions are performed in 96-well polystyrene plates in a final volume of 10 or 100 μl. The assays were constituted and performed as described below. Specifically, assays were performed by (1) forming a binding solution including RNA molecules, 7.5 mM BTP at pH 8.5, 10 mM KCl, 5 mM MgCl2, 0.2 mM DTT, and 10% glycerol, (2) heating the binding solution to denature the RNA molecules, (3) cooling the binding solution, (4) adding RNA binding proteins to the binding solution, (5) loading the binding solution onto a filter, and (6) detecting the amount RNA retained on the filter. It is preferred that the samples be loaded on to a filter of either pure nitrocellulose or a mixed cellulose ester (MCA). It is also preferred that the filters have a 0.2μ pore size, although filters with a 0.45μ pore size will also bind the RNA/RNA binding protein complex. It is preferred that, prior to loading the binding solution onto a filter, the volume is increased. For this purpose, it is preferred that the dilution solution has the same buffer components as the binding solution except lacking the density agent. For a 10 μl volume it is preferred that the final volume be about 100 μl by addition of 1× binding buffer. It is also preferred that the binding solution be loaded onto the filter under vacuum. It is also preferred that the filter is washed twice prior to detecting the amount of RNA retained on the filter. Preferably the wash solution had the same composition as the dilution solution. However, TE (pH 8.0), PBS, or TCA can also be used as wash solutions. In most of the assays described below, the RNA molecules were labeled with ^32 P.
The library was initially screened at 10 μM against ^32 P-labeled AUUUA RNA. Several methods of introducing the compounds into the binding reaction were tested. Initially the compounds were coincubated with the RNA and protein, producing modest results. Next, preincubation with either the protein extract or the RNA was tried with improved results.
Seventeen compounds were chosen for further analysis at 100 nM, 1 μM and 10 μM using both AUUUA and IRE RNAs based on the results from four screening efforts (Exps. 29-31, 33). Table 2 summarizes the results from these compounds at 10 μM. The results are also shown graphically in FIG. 7. […] Compounds D9 and H2, chosen as negative controls from the initial screening, continued to have no effect in the dose dependent screen (Exp. 33) and were identified as vehicle controls.

TNF-α production = conditions: previously shown; cited from earlier work
[3] = test system: TNF-α 3' untranslated region / human cell RBP's; experiment: High throughput screening assay, TNF-α 3' untranslated region with total protein extract; type: binding; conditions: TNF-α 3' UTR; for effect on TNF-α RNA/RBP interaction, in words: total protein extract; for EC50: read-out: EC50 on in vitro binding
Protocol: FIG. 9A is a graph of the level of RNA/RBP interactions (between the TNF-α 3' untranslated region and human cell RBP's) in the presence or absence of test compounds. […] The remaining columns include RNA plus extract in the presence of specific compounds.
as §1
This example describes identification of compounds which either increase or decrease the binding interaction between a site within an RNA molecule which interacts with an RBP. This example makes use of a total protein extract which allows identification of compounds that modulate interactions without the need for identification of the specific RBP(s) involved.

[4] = test system: iron response element RNA/RBP interaction; experiment: Control assay using the iron response element (Example 4); type: binding; conditions: increasing concentrations; unrelated RNA specificity control
[5] = compound 10 μM, RNA & K562 = 100.00

CC(=O)N(O)CCCCCNC(=O)CCC(=O)N(O)CCCCCNC(=O)CCC(=O)N(O)CCCCCN [Desferroxiamine, desferroxiamine]
modulation of IRE/protein binding by iron sources or iron chelator, in words [1]: did not change the amount IRE/protein complex formed

[Cl][Fe]([Cl])[Cl] [FeCl3]
modulation of IRE/protein binding by iron sources or iron chelator, in words [1]: concentration-dependent inhibition of binding

CC(=NNC(=N)N)c1cc(NC(=O)CCCCCCCCC(=O)Nc2cc(C(C)=NNC(=N)N)cc(C(C)=NNC(=N)N)c2)cc(C(C)=NNC(=N)N)c1 [Compound G10, CNI-1493]
effect on counts (AUUUA RNA binding), in words ([2]; 10 μM, AUUUA RNA): substantial increase in counts in 3 of the 4 experiments
Avg. % (labeled AUUUA RNA retained on filter, average of Experiments #33, #31, #30, #29) [2, 5]: 111.00%
Labeled AUUUA RNA retained on filter, percent of RNA & K562 control, Experiment #29 [2, 5]: 114.53%
Labeled AUUUA RNA retained on filter, percent of RNA & K562 control, Experiment #30 [2, 5]: 66.94%
Labeled AUUUA RNA retained on filter, percent of RNA & K562 control, Experiment #31 [2, 5]: 127.28%
Labeled AUUUA RNA retained on filter, percent of RNA & K562 control, Experiment #33 [2, 5]: 135.24%
effect on TNF-α production, in words (TNF-α production): post-transcriptionally inhibit TNF-α production

Cc1c(CCN)c2c3n1CCCC3CCC2 (centres unmarked) [SYM 1405]
inhibition of binding [3]: about 40%
effect on TNF-α RNA/RBP interaction, in words [3]: inhibited binding of TNF-α in a concentration-dependent manner; also recorded: concentration-dependent inhibition
EC50 [3]: ~2 µM
effect on iron response element binding, in words [4]: little effect on the iron response element

hemin
modulation of IRE/protein binding by iron sources or iron chelator, in words [1]: concentration-dependent inhibition of binding

CC(=NNC(=N)N)c1cc(NC(=O)CCCCCCC(=O)Nc2cc(C(C)=NNC(=N)N)cc(C(C)=NNC(=N)N)c2)cc(C(C)=NNC(=N)N)c1 [SYM 1710]
potentiation of binding [3]: approximately 3 fold
EC50 [3]: 23 µM

O=[N+]([O-])c1ccc(C(Cl)=NCCCN=Cc2ccc3c(c2)OCO3)cc1 [SYM 1301]
effect on TNF-α RNA/RBP interaction, in words [3]: no effect
